Patent US6235509A (priority 1996, dated 2001)

Tested on: chymotrypsin
Format: biochemical
Details: pH 8.0

With Oc1cccnc1 [3-hydroxypyridine] the “kinetics of the inhibition of chymotrypsin by AEBSF” value was “not changed”.
